Source: patent US10253251B2, “Nanomatrix separation of chromophores and uses thereof in luminescent devices” (RAMOT AT TEL-AVIV UNIVERSITY LTD., priority 2010, dated 2019)
“And” between values parts separate entries of the source, which are not always exact repeats. Equal entries are not always repeated.

What was measured:
[1] = tested on: Bovine Submaxillary Mucin (BSM); assay: Loading capacity of BSM glycoprotein for hydrophobic ligands (ligand uptake); format: binding; details: for BSM NBL (average number of bound ligands per BSM monomer): LUP multiplied by BSM monomer-to-ligand molecular weight ratio; for BSM LUP (ligand uptake percentage, ligand-to-BSM weight ratio): extracted ligand (hydrolysis-extraction, UV-vis) divided by BSM protein (PAS assay)
Description: In order to determine the loading capacity of BSM glycoprotein for the examined ligands, elemental analysis measurements were preformed. The carbon content of each complex (in the case of C60 and MWNT containing complexes) was compared to the carbon content found in the native BSM. This was used to determine the amount of ligand in the complex and by that, the mucin-ligand weight ratio (ligand uptake percentage—LUP, Table 1).
In this procedure, the amount of the BSM protein in the mucin complex was analyzed by a periodic acid/Schiff (PAS) assay.
In more detail, in order to determine the amount of C60, a hydrolysis-extraction process was used which included heating of the complex in a heterogeneous mixture of hydrochloric acid and chloroform at 80° C., in a sealed vessel, and then the amount of a chloroform-extracted ligand was determined by UV-vis spectroscopy.
Additional calculation determined the average number of bound ligand (NBL) per BSM monomer by multiplication of the LUP value by the BSM monomer-to-ligand molecular weight ratio (Eq. 2).
In order to ascertain the capacity of BSM glycoprotein for various ligands, the amounts of Ant, Bap and Cor ligands in corresponding BSM complexes were determined. The amount of the BSM protein in each BSM complex was analyzed by a periodic acid/Schiff (PAS) assay.
In order to determine the amount of ligand in each complex, the above-described hydrolysis-extraction process was employed and determined the amount of chloroform-extracted ligand by UV-vis spectroscopy.
The LUP values were calculated by dividing the amount of the extracted ligand by the amount of the BSM protein present in the complex. […] The average number of bound ligands (NBL) per BSM monomer was also calculated by multiplication of the LUP value by the BSM monomer-to-ligand molecular weight ratio, as discussed above.
(§1) To a solution of BSM or deglycosylated BSM protein (4 mg mL^−1, 1.5 mL) in sodium phosphate buffer (2 mM, pH 7.2) a solid ligand (1 mg) was added at room temperature and the mixture was stirred at 500-700 rpm for 48 hrs. After that time, the reaction mixture was filtered through a 0.45 μm filter and the solution was loaded on a Sephadex G-25 gel-permeation column (Pharmacia Biotech). Protein complexes were eluted with a sodium phosphate buffer (20 mM, pH 7.2) and elution was monitored by UV-vis spectroscopy.
(§2) The amount of BSM or deglycosylated BSM protein in complexes was determined by using a standard periodic acid/Schiff assay (Sigma-Aldrich). The amount of a ligand in each complex was determined by UV-vis spectroscopy after protein hydrolysis and quantitative extraction of the ligand by chloroform. To a sample of complex in a sodium phosphate buffer (1 mL, 20 mM, pH 7.2), chloroform (1 mL) and hydrochloric acid (1 mL, 12 M) were added at room temperature. The reaction mixture was sealed in a glass pressure vessel and heated at 80° C. with vigorous stirring for 3 hrs. After cooling to a room temperature, the organic phase containing extracted ligand was analyzed by UV-vis spectroscopy.

[2] = tested on: deglycosylated form of BSM (dBSM); assay: Loading capacity of deglycosylated BSM (dBSM) for hydrophobic ligands; format: binding, bovine; details: for dBSM NBL (number of bound ligands per dBSM monomer) / dBSM UP (%): deglycosylated BSM
Procedure: To evaluate this assumption, a deglycosylated form of BSM (dBSM) was prepared and repeated binding experiments with this modified protein were carried out. Complexes of C60 with dBSM were prepared as described above for the complexation with BSM.
dBSM was prepared by base-catalyzed β-elimination of periodate-oxidized glycans, using method reported by Kim and coworkers.
A deglycosylated form of BSM (dBSM) was prepared and the binding experiments with this protein were repeated. Complexes of Ant, Bap and Cor ligands with dBSM were prepared as described above for the complexation with BSM. dBSM was prepared as described above in the context of fullerene, nanotubes, and inorganic nanostructures.
A solution of BSM protein (100 mg) in NaOH (0.1 M, 10 mL) was stirred at room temperature for 30 min. The resulting solution was cooled to 4° C. NaIO4 (100 mM) in acetate buffer (100 mM, pH 4.5) was added and the mixture was stirred overnight at 4° C. After that time, glycine (200 mg) was added and the reaction mixture was allowed to warm to room temperature and was stirred for 30 min. NaOH (1.0 M, 1 mL) was added and the solution was stirred for an additional 30 min. The resulting solution was dialyzed against deionized water overnight and was then centrifuged and lyophilized. The degree of deglycosylation was measured by using a standard periodic acid/Schiff assay (Sigma-Aldrich).
as §1, §2

[3] = Binding/dissolution of hydrophobic ligands by oligosaccharide: arabic acid; details: dissolved ligand divided by amount of oligosaccharide
Procedure: (§3) The subsequent series of complementary experiments was designed to examine capabilities of different size oligosaccharides to bind selected hydrophobic ligands.
(§4) Representative oligosaccharides, including β-cyclodextrin, starch, arabic acid and lactose, were incubated with C60, according to the described above protocol for the BSM complexes preparation. […] Therefore, it is believed that interactions between the saccharide residues and the polypeptide backbone in a sugar-substituted polypeptide dictate certain arrangements of the saccharide moieties in space, and these arrangements play a role in the complexation of various hydrophobic materials.
(§5) The subsequent series of complementary experiments was designed to examine capabilities of different size oligosaccharides to bind selected hydrophobic ligands. Representative oligosaccharides, including β-cyclodextrin, starch, arabic acid and lactose, were incubated with Ant, Bap and Cor ligands, according to the described above protocol for the BSM complexes preparation. The LUP values were calculated by dividing the amount of the dissolved ligand by the amount of the oligosaccharide present in the complex (if formed). No clear preference was for binding of particular ligands to certain oligosaccharides. In comparison to BSM, the dissolution capability of arabic acid was drastically lower for all tested ligands. It was practically negligible in the cases of lactose, β-cyclodextrin and starch (Table 1).

[4] = Binding/dissolution of hydrophobic ligands by oligosaccharide: starch; details: dissolved ligand divided by amount of oligosaccharide
Procedure: as §3, §4, §5

[5] = Binding/dissolution of hydrophobic ligands by oligosaccharide: β-cyclodextrin; details: dissolved ligand divided by amount of oligosaccharide
Procedure: as §3, §4
as §5, with “It was practically negligible in the cases of lactose, β-cyclodextrin and starch (Table 1).” left out

[6] = Incubation of representative oligosaccharides with C60, detection in solution by UV-vis or SEC-HPLC; format: physicochemical; details: β-cyclodextrin, starch, arabic acid and lactose
Procedure: as §3, §4

SMILES	BSM NBL (average number of bound ligands per BSM monomer) [1]	BSM LUP (ligand uptake percentage, ligand-to-BSM weight ratio) [1]	dBSM NBL (number of bound ligands per dBSM monomer) [2]	dBSM UP (%) [2]	Arabic Acid LUP [3]	Starch LUP [4]	average number of bound ligand (NBL) per BSM monomer [1]	uptake capacity of dBSM, ligands per monomer [2]	β-Cyclodextrin LUP [5]	C60 detected in the solution after incubation with oligosaccharides [6]	BSM LUP (ligand uptake percentage, ligand-to-BSM weight ratio) ([1]; listed as Coronene)
c1ccc2c(c1)cc1ccc3cccc4ccc2c1c34 [Bap, benzo[a]pyrene]	36 ± 8	5.4 ± 1.1%	1.2 ± 0.2	0.23 ± 0.05%	0.09 ± 0.02%	0.11 ± 0.02%	–	–	–	–	–
c12c3c4c5c1c1c6c7c2c2c8c3c3c9c4c4c%10c5c5c1c1c6c6c%11c7c2c2c7c8c3c3c8c9c4c4c9c%10c5c5c1c1c6c6c%11c2c2c7c3c3c8c4c4c9c5c1c1c6c2c3c41 [Ligand C60, C60]	36 ± 6	15.1% and 15.1 ± 2.4%	1.9 ± 0.1	1.4% and 1.41 ± 0.28%	–	0.35 ± 0.07%	40 ligands per monomeric unit of BSM	2 ligand molecules per monomeric unit	0.12 ± 0.02%	no C60 was detected	–
c1cc2ccc3ccc4ccc5ccc6ccc1c1c2c3c4c5c61 [Cor, coronene]	44 ± 9	7.8 ± 1.5%	2.1 ± 0.2	0.61 ± 0.12%	0.18 ± 0.04%	0.18 ± 0.04%	–	–	–	–	7.7%
c1ccc2cc3ccccc3cc2c1 [Ant, anthracene]	43 ± 9	4.5% and 4.5 ± 0.9%	2.2 ± 0.3	0.28 ± 0.06%	0.56 ± 0.11%	–	–	–	–	–	–
